According to patent US20060276438A1 (priority 2004, published 2006):
In brackets after ≈: the same amount, converted by molar mass. Several values for one entry are separate records, joined by “and”; a condition that tells them apart may be missing. Identical values can stand only once. Like-named read-outs stand apart in the source and are kept apart here. Marks after values point to notes of the source that are not given here.

Columns and labels:
[1] = test system: Madin-Darby canine kidney cells (MDCK); conditions: at concentrations of 1-100 μg/ml
[2] = test system: Influenza A (H3N2; Panama/2007/99); test: microbe, parasite or virus in culture; assay type: cell-based, influenza type A virus; conditions: for EC50: MDCK cells, H3N2 Panama/2007/99; for SI (Safety Index = IC50/EC50): H3N2; for antiviral activity rating in words: influenza virus A (H3N2)
[3] = test system: Influenza B (Hong Kong/330/02); test: Antiviral assay in MDCK cells (CPE inhibition visual / Neutral Red), influenza B, initial and confirmatory test; assay type: cell-based, influenza type B virus; conditions: for antiviral activity rating in words: influenza virus B
Procedure: An antiviral test assay for the determination of the efficacy of DON was carried out according to the methods described in Furata et al., Antimicrobial Agents and Chemotherapy, 46(4):977-981 (2002). The vehicle used was Eagle's modification of minimum essential medium (EMEM). Two tests were carried out with different strains of influenza type A viruses and one test, followed by a confirmatory test, was carried out with an influenza type B virus strain. The cell type in all tests was Madin-Darby canine kidney cells (MDCK), and in all tests drug units and control units are expressed as micrograms/milliliter (μg/ml). […] The Safety Index (SI) of the drug could then be calculated according to the formula: SI═IC50/EC50. […] The Safety Index (SI) of the drug could then be calculated according to the formula: SI═IC50/ EC50, or SI═IC50/ EC90. All drug tests were carried out with stationary cells.

[4] = test system: Influenza A (H1N1; New Caledonia/20/99); test: microbe, parasite or virus in culture; assay type: cell-based, influenza type A virus; conditions: for EC50: Influenza A virus, H1N1, MDCK, MDCK cells, H1N1 New Caledonia/20/99; for antiviral activity rating in words: influenza virus A (H1N1)
[5] = test system: Madin-Darby canine kidney cells (MDCK); test: cells; conditions: Canis lupus familiaris
[6] = Influenza A virus, H3N2, MDCK, CPE inhibition (visual), read-out: EC50
[7] = Influenza A virus, H3N2, MDCK, Neutral Red assay, read-out: EC50
[8] = based on EC50 by CPE inhibition (visual)
[9] = Influenza B virus, MDCK, CPE inhibition (visual), MDCK cells, influenza B Hong Kong/330/02, initial test, read-out: EC50
[10] = Influenza B virus, MDCK, Neutral Red assay, MDCK cells, influenza B Hong Kong/330/02, initial test, read-out: EC50
[11] = Influenza B virus, MDCK, confirmatory test, visual method, MDCK cells, influenza B Hong Kong/330/02, read-out: EC50
[12] = based on EC50 by CPE inhibition (visual), influenza B initial test
[13] = based on EC50 by Neutral Red, influenza B initial test
[14] = based on EC50 by CPE inhibition (visual), H1N1
[15] = based on EC50 by Neutral Red, H1N1
[16] = read-out: IC50 (concentration toxic for 50% of MDCK host cells), in the influenza A H1N1 test, stationary cells
[17] = read-out: IC50 (concentration toxic for 50% of MDCK host cells), in the influenza A H3N2 test, stationary cells
[18] = read-out: IC50 (concentration toxic for 50% of MDCK host cells), in the influenza B confirmatory test, stationary cells
[19] = read-out: IC50 (concentration toxic for 50% of MDCK host cells), in the influenza B initial test, stationary cells

| Structure (SMILES) | EC50 [2, 6] [µg/mL] | EC50 [2, 7] [µg/mL] | SI (Safety Index = IC50/EC50) [2, 8] | SI (Safety Index = IC50/EC50) ([2]; based on EC50 by Neutral Red) | antiviral activity rating in words [2] | EC50 [3, 9] [µg/mL] | EC50 [3, 10] [µg/mL] | EC50 [3, 11] [µg/mL] | SI (Safety Index = IC50/EC50) [3, 12] | SI (Safety Index = IC50/EC50) [3, 13] | SI (Safety Index = IC50/EC50) ([3]; influenza B confirmatory test) | SI = IC50/EC90 ([3]; influenza B confirmatory test) | antiviral activity rating in words [3] | EC50 ([4]; CPE inhibition (visual)) [µg/mL] | EC50 ([4]; Neutral Red assay) [µg/mL] | SI (Safety Index = IC50/EC50) [4, 14] | SI (Safety Index = IC50/EC50) [4, 15] | IC50 [5, 16] [µg/mL] | IC50 [5, 17] [µg/mL] | IC50 [5, 19] [µg/mL] | also measured |
| --- | --- | --- | --- | --- | --- | --- | --- | --- | --- | --- | --- | --- | --- | --- | --- | --- | --- | --- | --- | --- | --- |
| [N-]=[N+]=CC(=O)CC[C@H](N)C(=O)O [DON, 6-diazo-5-oxo-L-norleucine] | 2.3 (≈ 13.4 µM) | 1.8 (≈ 10.5 µM) | 43 | 56 | active to highly active | 0.032 (≈ 0.187 µM) | 0.14 (≈ 0.818 µM) | 0.18 (≈ 1.05 µM) | 3,125 | 714 | >555 | 40^b | active to highly active | 0.32 (≈ 1.87 µM) | 0.21 (≈ 1.23 µM) | 312 | 476 | > 100 | ≥ 100 | ≥ 100 | toxicity in the neutral red assay [1]: 25-50%; EC90 ([3]; Influenza B virus, MDCK): 2.5 µg/mL (≈ 14.6 µM); antiviral activity rating in words [4]: active to highly active; IC50 [5, 18]: > 100 µg/mL; toxicity by neutral red assay in Vero cells compared with MDCK cells (Vero cells): much greater than in MDCK cells |
| NC(=O)c1ncn([C@@H]2O[C@H](CO)[C@@H](O)[C@H]2O)n1 [Positive control drug, ribavarin] |  | 4.3 (≈ 17.6 µM) |  |  |  |  | 2 (≈ 8.19 µM) | 1.8 (≈ 7.37 µM) |  | >50 and >83 | >56 | >29^b |  | 5.5 (≈ 22.5 µM) | 5.5 (≈ 22.5 µM) |  |  | > 100 | > 100 | > 100 | EC50 ([2]; Neutral Red assay): 5.5 µg/mL (≈ 22.5 µM); EC90 ([3]; Influenza B virus, confirmatory test, visual method, MDCK cells, influenza B Hong Kong/330/02, read-out: EC90): 3.5 µg/mL (≈ 14.3 µM); EC50 ([3]; Neutral Red assay, MDCK cells, influenza B Hong Kong/330/02, initial test): 1.2 µg/mL (≈ 4.91 µM); SI (Safety Index = IC50/EC50) [4]: >18; IC50 [5, 18]: > 100 µg/mL |
| N[C@H](C(=O)O)[C@@H]1CC(Cl)=NO1 [acivicin, (alpha-S,5S)-alpha-amino-3-chloro-2-isoxazoline-5-acetic acid] | 50 (≈ 280 µM) | 55 (≈ 308 µM) | >2 | 1.8 | not active | 0.32 (≈ 1.79 µM) | 0.32 (≈ 1.79 µM) |  | >312 | >312 |  |  | markedly active | 2.5 (≈ 14 µM) | 1.3 (≈ 7.28 µM) | >4 | >7.7 | > 100 | ≥ 100 | ≥ 100 | antiviral activity rating in words [4]: weakly active to active |
